From patent US8426420B2, “Heterocyclic pyrazole-carboxamidesas P2Y12 antagonists” (Sanofi, priority 2007, dated 2013) come the findings set out here.

The target of one experiment is human P2Y12 receptor (Homo sapiens, UniProt Q9H244). Description: Human P2Y12 recombinant cell membrane binding assay with 33P 2MeS-ADP. As to conditions: competition against 33P 2MeS-ADP, membranes of CHO cells with recombinant human P2Y12 receptor. The method, boiled down:
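Competition binding against radiolabeled 2MeS-ADP (1.61 nM as added) on membranes from recombinant human P2Y12 CHO cells, 20 min RT after 15 min compound preincubation, pH 7.4. Filtration then scintillation counting; compounds tested in triplicate from 10 μM final, five-fold dilutions, curve fit with plate-defined min/max.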

Experiment [1] deals with human platelet rich plasma. The experiment in a line: Inhibition of human platelet aggregation, 96-well assay. To be noted: Homo sapiens, Platelet, 20 min. It counts as cell-based. The method in brief:
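ADP-induced aggregation read as 650 nm absorbance every minute for 20 min at 37 °C, with shaking between reads. PRP (~3×E8 platelets/ml, diluted with PPP, ACD-A blood from healthy volunteers) was exposed to compound for 5 min before adding a 40 μM ADP stock (15 μl into 150 μl).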

Experiment [2] deals with human platelet rich plasma. The experiment in a line: Inhibition of human platelet aggregation, "Born"-method using single cuvettes. It counts as cell-based. To be noted: 0.1 h, ADP-induced aggregation, 6 minutes. On the procedure: Inhibition of Human Platelet Aggregation
Alternatively to a binding assay which measures a compound's ability to bind to the P2Y12 receptor, the effect on cellular function was also determined. This ability of the compound was evaluated in two platelet aggregation assays: in 96-well plates and with the “Born”-method using single cuvettes.
Whole blood was collected from healthy volunteers using 20 ml syringes containing 2 ml of buffered Citrate. The anticoagulated whole blood was transferred into 15 ml polypropylene conical tubes (10 ml per tube). The tubes were centrifuged for 15 minutes at 340×g at RT without using the centrifuge brake. This procedure leads to a pellet of cellular components and a supernatant of platelet rich plasma (PRP). The PRP layer was collected from each tube and pooled for each donor. To avoid carry over of cellular components following centrifugation, approximately 5 ml of PRP was left in the tube. The platelet concentration was determined using a Coulter Counter.
The 15 ml tubes containing the pellet of cellular components were centrifuged again for 10 minutes at 1940×g. This pelleted out most particulate blood constituents remaining, leaving a layer of Platelet Poor Plasma (PPP). The PPP was collected for each donor. The PRP layer, previously set aside, was diluted with PPP to a final concentration of approximately 3×E8 platelets/ml with the PPP.
The human platelet aggregation assay is performed in single use cuvettes using the platelet aggregation profiler (PAP-4 or -8, Bio/Data corporation).
In the assay cuvette 4 μl of test compound at 100× final concentration in DMSO is mixed with 392 μl fresh PRP and incubated for 2 minutes at 37° C. with 1.200 rpm stirring. Following that incubation period, 4 μl of 250 μM ADP is added to the reaction mix. This addition of ADP is sufficient to induce aggregation in the absence of an inhibitor. After that aggregation is measured over 6 minutes at 37° C. with 1.200 rpm stirring. Results of the assay are expressed as % inhibition, and are calculated using maximum aggregation (Tmax) or area under curve (AUC) of the absorbance over 6 minutes.
The IC50 data of the above described platelet aggregation assay using human platelet rich plasma for exemplary compounds of the present invention are shown in table 3.

human P2Y12 receptor, sequence (Q9H244 whole entry): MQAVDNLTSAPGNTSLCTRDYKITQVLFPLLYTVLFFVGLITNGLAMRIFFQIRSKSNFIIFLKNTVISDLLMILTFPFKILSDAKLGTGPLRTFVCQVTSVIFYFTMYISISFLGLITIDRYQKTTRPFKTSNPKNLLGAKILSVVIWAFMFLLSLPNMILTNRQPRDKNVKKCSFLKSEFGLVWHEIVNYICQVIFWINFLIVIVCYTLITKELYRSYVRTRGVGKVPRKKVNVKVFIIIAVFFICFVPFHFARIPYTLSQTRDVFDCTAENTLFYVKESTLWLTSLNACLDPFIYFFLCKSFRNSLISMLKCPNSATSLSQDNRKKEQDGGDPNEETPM

In the case of `CCOC(=O)N1CCN(C(=O)[C@H](CCC(=O)O)NC(=O)c2cc(O[C@H](C)C(=O)N3CCC[C@H]3C(=O)NC3CC3)n(-c3ccccc3)n2)CC1` [Example 61, 4-[(S)-4-Carboxy-2-({5-[(R)-2-((S)-2-cyclopropylcarbamoyl-pyrrolidin-1-yl)-1-methyl-2-oxo-ethoxy]-1-phenyl-1H-pyrazole-3-carbonyl}-amino)-butyryl]-piperazine-1-carboxylic acid ethyl ester], the IC50 at human P2Y12 receptor stood at 93 nM; in experiment [1] it was 50 nM; in experiment [2] it was 180 nM.

Turning to `CCOC(=O)N1CCN(C(=O)[C@H](CCC(=O)O)NC(=O)c2cc(O[C@H](C)C(=O)N3CCC[C@H]3C(=O)NC3CCC3)n(-c3ccccc3)n2)CC1` [Example 62, 4-[(S)-4-Carboxy-2-({5-[(R)-2-((S)-2-cyclobutylcarbamoyl-pyrrolidin-1-yl)-1-methyl-2-oxo-ethoxy]-1-phenyl-1H-pyrazole-3-carbonyl}-amino)-butyryl]-piperazine-1-carboxylic acid ethyl ester], the IC50 on human P2Y12 receptor stood at 17 nM; in experiment [1] it was 130 nM; in experiment [2], 58 nM.

With `CCOC(=O)N1CCN(C(=O)[C@H](CCC(=O)O)NC(=O)c2cc(OCC(=O)N3CCC[C@H]3C(=O)NC3CCC3)n(-c3cccc(F)c3)n2)CC1` [Example 73, 4-((S)-4-Carboxy-2-{[5-[2-((S)-2-cyclobutylcarbamoyl-pyrrolidin-1-yl)-2-oxo-ethoxy]-1-(3-fluoro-phenyl)-1H-pyrazole-3-carbonyl]-amino}-butyryl)-piperazine-1-carboxylic acid ethyl ester], the values for the IC50 (on human P2Y12 receptor; in experiment [1]; in experiment [2]) were 55 nM, 10 nM and 210 nM, respectively.

For `O=C(O)CC[C@H](NC(=O)c1cc(OCC(=O)N2CCC[C@H]2C(=O)NC2CCC2)n(-c2ccccc2)n1)C(=O)N1CCC(C(=O)c2cccc(Cl)c2)CC1` [Example 103, (S)-5-[4-(3-Chloro-benzoyl)-piperidin-1-yl]-4-({5-[2-((S)-2-cyclobutylcarbamoyl-pyrrolidin-1-yl)-2-oxo-ethoxy]-1-phenyl-1H-pyrazole-3-carbonyl}-amino)-5-oxo-pentanoic acid], the IC50 on human P2Y12 receptor amounted to 127 nM; in experiment [1] it was 560 nM; in experiment [2], 120 nM.

With `CCOC(=O)N1CCN(C(=O)[C@H](CCO)NC(=O)c2cc(OCC(=O)N3CCC[C@H]3C(=O)NC3CCC3)n(-c3ccccc3)n2)CC1` [Example 115, 4-[(S)-2-({5-[2-((S)-2-Cyclobutylcarbamoyl-pyrrolidin-1-yl)-2-oxo-ethoxy]-1-phenyl-1H-pyrazole-3-carbonyl}-amino)-4-hydroxy-butyryl]-piperazine-1-carboxylic acid ethyl ester], the IC50 on human P2Y12 receptor turned out to be 59 nM; in experiment [1] it was 210 nM; in experiment [2], 120 nM.

Consider `CCCCOC(=O)N1CCN(C(=O)[C@H](CCC(=O)O)NC(=O)c2cc(OCC(=O)N3CCC[C@H]3C(=O)NC3CC3)n(-c3ccccc3)n2)CC1` [Example 118, 4-[(S)-4-Carboxy-2-({5-[2-((S)-2-cyclopropylcarbamoyl-pyrrolidin-1-yl)-2-oxo-ethoxy]-1-phenyl-1H-pyrazole-3-carbonyl}-amino)-butyryl]-piperazine-1-carboxylic acid butyl ester], for which the IC50 on human P2Y12 receptor amounted to 9 nM; in experiment [1] it was 20 nM; in experiment [2] it was 25 nM.

As for `CCCCOC(=O)N1CCN(C(=O)[C@H](CCC(=O)O)NC(=O)c2cc(OCC(=O)N3CCC[C@H]3C(=O)NCC3CC3)n(-c3ccccc3)n2)CC1` [Example 120, 4-[(S)-4-Carboxy-2-({5-[2-((S)-2-cyclopropylmethylcarbamoyl-pyrrolidin-1-yl)-2-oxo-ethoxy]-1-phenyl-1H-pyrazole-3-carbonyl}-amino)-butyryl]-piperazine-1-carboxylic acid butyl ester], the IC50 is 3 nM at human P2Y12 receptor, 10 nM in experiment [1] and 21 nM in experiment [2].

As to `CCCCOC(=O)N1CCN(C(=O)[C@H](CCC(=O)O)NC(=O)c2cc(OCC(=O)N3CCC[C@H]3C(=O)NCC(F)F)n(-c3ccccc3)n2)CC1` [Example 121, 4-{(S)-4-Carboxy-2-[(5-{2-[(S)-2-(2,2-difluoro-ethylcarbamoyl)-pyrrolidin-1-yl]-2-oxo-ethoxy}-1-phenyl-1H-pyrazole-3-carbonyl)-amino]-butyryl}-piperazine-1-carboxylic acid butyl ester], the concentration for half-maximal inhibition (IC50) on human P2Y12 receptor was found to be 10 nM; in experiment [1], 30 nM; in experiment [2], 5.8 nM.

Take `CCCCOC(=O)N1CCN(C(=O)[C@H](CCC(=O)O)NC(=O)c2cc(OCC(=O)N3CCC[C@H]3C(=O)NCCF)n(-c3ccccc3)n2)CC1` [Example 122, 4-{(S)-4-Carboxy-2-[(5-{2-[(S)-2-(2-fluoro-ethylcarbamoyl)-pyrrolidin-1-yl]-2-oxo-ethoxy}-1-phenyl-1H-pyrazole-3-carbonyl)-amino]-butyryl}-piperazine-1-carboxylic acid butyl ester]: the values for the IC50 (at human P2Y12 receptor; in experiment [1]; in experiment [2]) were 12 nM, 40 nM and 81 nM, respectively.

With `CCCCOC(=O)N1CCN(C(=O)[C@H](CCC(=O)O)NC(=O)c2cc(OCC(=O)N3CCC[C@H]3C(=O)NCC(F)(F)F)n(-c3ccccc3)n2)CC1` [Example 123, 4-{(S)-4-Carboxy-2-[(5-{2-[(S)-2-(2,2,2-trifluoro-ethylcarbamoyl)-pyrrolidin-1-yl]-2-oxo-ethoxy}-1-phenyl-1H-pyrazole-3-carbonyl)-amino]-butyryl}-piperazine-1-carboxylic acid butyl ester], the IC50 on human P2Y12 receptor turned out to be 5 nM; in experiment [1], 30 nM; in experiment [2], 2.6 nM.

With `CCCCOC(=O)N1CCN(C(=O)[C@H](CCC(=O)OCC)NC(=O)c2cc(OCC(=O)N3CCC[C@H]3C(=O)NC3CCC3)n(-c3ccccc3)n2)CC1` [Example 143, 4-[(S)-2-({5-[2-((S)-2-Cyclobutylcarbamoyl-pyrrolidin-1-yl)-2-oxo-ethoxy]-1-phenyl-1H-pyrazole-3-carbonyl}-amino)-4-ethoxycarbonyl-butyryl]-piperazine-1-carboxylic acid butyl ester], the half-inhibitory concentration (IC50) on human P2Y12 receptor came out at 5 nM; in experiment [1], 90 nM; in experiment [2] it was 150 nM.

Regarding `CCCOC(=O)N1CCN(C(=O)[C@H](CCC(=O)O)NC(=O)c2cc(OCC(=O)N3CCC[C@H]3C(=O)NC3CCC3)n(-c3ccccc3)n2)CC1` [Example 162, 4-[(S)-4-Carboxy-2-({5-[2-((S)-2-cyclobutylcarbamoyl-pyrrolidin-1-yl)-2-oxo-ethoxy]-1-phenyl-1H-pyrazole-3-carbonyl}-amino)-butyryl]-piperazine-1-carboxylic acid propyl ester], the IC50 at human P2Y12 receptor is 8 nM; in experiment [1] it was 20 nM; in experiment [2], 33 nM.

As for `CCOC(=O)N1CCN(C(=O)[C@H](CCC(=O)O)NC(=O)c2cc(OCC(=O)N3CCC[C@H]3c3nc(C)c[nH]3)n(-c3ccccc3)n2)CC1` [Example 172, 4-{(S)-4-Carboxy-2-[(5-{2-[(S)-2-(4-methyl-1H-imidazol-2-yl)-pyrrolidin-1-yl]-2-oxo-ethoxy}-1-phenyl-1H-pyrazole-3-carbonyl)-amino]-butyryl}-piperazine-1-carboxylic acid ethyl ester], the IC50 on human P2Y12 receptor stood at 146 nM; in experiment [1], 380 nM; in experiment [2] it was 530 nM.

With `CCCCOC(=O)N1CCN(C(=O)CNC(=O)c2cc(OCC(=O)N3CCC[C@H]3C(=O)NC3CCC3)n(-c3ccccc3)n2)CC1` [Example 182, 4-[2-({5-[2-((S)-2-Cyclobutylcarbamoyl-pyrrolidin-1-yl)-2-oxo-ethoxy]-1-phenyl-1H-pyrazole-3-carbonyl}-amino)-acetyl]-piperazine-1-carboxylic acid butyl ester], the IC50 on human P2Y12 receptor was determined as 20 nM; in experiment [1], 30 nM; in experiment [2] it was 46 nM.

Take `CCCCOC(=O)N1CCN(C(=O)[C@@H](C)NC(=O)c2cc(OCC(=O)N3CCC[C@H]3C(=O)NC3CCC3)n(-c3ccccc3)n2)CC1` [Example 184, 4-[(R)-2-({5-[2-((S)-2-Cyclobutylcarbamoyl-pyrrolidin-1-yl)-2-oxo-ethoxy]-1-phenyl-1H-pyrazole-3-carbonyl}-amino)-propionyl]-piperazine-1-carboxylic acid butyl ester]: the values for the IC50 (on human P2Y12 receptor; in experiment [1]; in experiment [2]) were 18 nM, 280 nM and 80 nM, respectively.
